Publication PMC9315884, “New Membrane Active Antibacterial and Antiviral Amphiphiles Derived from Heterocyclic Backbone of Pyridinium-4-Aldoxime” (Pharmaceuticals, 2022)
Values joined by “and” are separate entries in the source; they are usually repeats but may differ in a detail not shown here. Identical values can stand only once. Like-named read-outs stand apart in the source and are kept apart here.

Columns and labels:
[1] = tested on: methicillin-resistant Staphylococcus aureus clinical strain MRSA; assay: Broth microdilution assay (MIC); format: cell-based
Description: (§1) The antibacterial activity of all compounds was evaluated by determining the minimum inhibitory concentration (MIC), which is defined as the lowest concentration of the compound at which no visible bacterial growth is detected. The compounds were tested against representatives of Gram-positive and Gram-negative strains, including the ESKAPE bacterium Staphylococcus aureus ATCC25923 and the clinical isolate of methicillin-resistant S. aureus (MRSA), which are known for their pathogenicity.
(§2) The collection included five Gram-positive strains, including Staphylococcus aureus (ATCC 25923 and a methicillin-resistant Staphylococcus aureus clinical strain MRSA), Bacillus cereus ATCC 14579, Enterococcus faecalis ATCC 29212, and Listeria monocytogenes ATCC 7644; and three Gram-negative strains: Escherichia coli ATCC 25922, Pseudomonas aeruginosa ATCC 27853 and the food isolate Salmonella enterica. All microbial strains were maintained at ™80 °C for long-term storage and subcultured on Mueller-Hinton (MH) agar (Biolife, Italy) prior to broth microdilution experiments. The MH plates were stored at +4 °C for no longer than one month.
(§3) Antibacterial activity was evaluated using the Broth Microdilution Assay according to the Clinical and Laboratory Standard Institute’s Methods for Dilution Antimicrobial Susceptibility Test for Bacteria That Grow Aerobically; Approved Standard-Tenth Edition.
(§4) The stock solution of QAS (10 mg/mL) was prepared in 4% DMSO. Then, 100 µL of the tested QAS was added to the first well of the microtiter plate. Twofold serial dilutions in Muller-Hinton broth were performed over the entire plate at a concentration range of 5 mg/mL to 5 µg/mL. To each well, 50 µL of mid-exponentially grown inoculum containing 10^5 CFU/mL in Mueller-Hinton broth was added and incubated at 37 °C for 18 hours. The minimum inhibitory concentration (MIC) was determined as the lowest concentration at which no visually detectable bacterial growth occurred in the wells.

[2] = tested on: Salmonella enterica food isolate; assay: Broth microdilution assay (MIC); format: cell-based; conditions: 18 h, S. enterica food isolate
Description: as §1, §2, §3, §4

[3] = tested on: Enterococcus faecalis ATCC29212; assay: Broth microdilution assay (MIC); format: cell-based
Description: as §1
(§5) All microbial strains were maintained at ™80 °C for long-term storage and subcultured on Mueller-Hinton (MH) agar (Biolife, Italy) prior to broth microdilution experiments. The MH plates were stored at +4 °C for no longer than one month.
as §3
as §4, with “To each well, 50 µL of mid-exponentially grown inoculum containing 10^5 CFU/mL in Mueller-Hinton broth was added and incubated at 37 °C for 18 hours.” left out

[4] = tested on: Escherichia coli ATCC25922; assay: Broth microdilution assay (MIC); format: cell-based; conditions: ATCC25922, 18 h
Description: as §1, §5, §3
as §4, with “To each well, 50 µL of mid-exponentially grown inoculum containing 10^5 CFU/mL in Mueller-Hinton broth was added and incubated at 37 °C for 18 hours.” left out

[5] = tested on: Bacillus cereus ATCC14579; assay: Broth microdilution assay (MIC); format: cell-based
Description: as §1, §5, §3
as §4, with “To each well, 50 µL of mid-exponentially grown inoculum containing 10^5 CFU/mL in Mueller-Hinton broth was added and incubated at 37 °C for 18 hours.” left out

[6] = tested on: Staphylococcus aureus ATCC25923; assay: Broth microdilution assay (MIC); format: cell-based; conditions: for MIC: Staphylococcus aureus
Description: as §1, §5, §3
as §4, with “To each well, 50 µL of mid-exponentially grown inoculum containing 10^5 CFU/mL in Mueller-Hinton broth was added and incubated at 37 °C for 18 hours.” left out

[7] = tested on: Listeria monocytogenes ATCC7644; assay: Broth microdilution assay (MIC); format: cell-based
Description: as §1, §5, §3
as §4, with “To each well, 50 µL of mid-exponentially grown inoculum containing 10^5 CFU/mL in Mueller-Hinton broth was added and incubated at 37 °C for 18 hours.” left out

[8] = tested on: Pseudomonas aeruginosa ATCC27853; assay: Broth microdilution assay (MIC); format: cell-based
Description: as §1, §5, §3
as §4, with “To each well, 50 µL of mid-exponentially grown inoculum containing 10^5 CFU/mL in Mueller-Hinton broth was added and incubated at 37 °C for 18 hours.” left out

RPE1 cells = assay: Cytotoxicity (MTS assay); conditions: 48 h
Description: (§6) Keratinocytes are the primary cell type found in the outermost layer of the skin. Therefore, HaCaT cells were used as a model for human skin, and RPE1 are retinal pigment epithelial cells, thus a model for epithelial cell type.
(§7) Cells were grown in DMEM media in a humidified environment with 5% CO2 and 37 °C. To determine cytotoxicity, a twofold serial dilution of a tested compound starting at 5 mg/mL was prepared in a 96-well plate. Five thousand cells were pipetted into each well, and the cells were grown for an additional 48 h. Then, the reagent MTS (20 μL) was added to the cells according to the manufacturer’s instructions (CellTiter 96® Aqueous One Solution Cell Proliferation Assay, Promega). After 3 h of incubation, the absorbance was measured at 490 nm. IC50 values were determined by plotting compound concentration against absorbance using GraFit6 software.

HaCaT cells = assay: Cytotoxicity (MTS assay); conditions: 48 h
Description: as §6, §7

Escherichia coli DH5α = assay: MIC determination before AFM; format: cell-based
[9] = tested on: Tobacco mosaic virus (TMV); assay: Antiphytoviral activity assay (local lesions on host plant leaves); format: in vivo, Tobacco mosaic virus on Datura stramonium; conditions: Datura stramonium leaves
Description: Leaves of Nicotiana tabacum L. cv. Samsun plants systemically infected with Tobacco mosaic virus (TMV) were ground in 0.06 mol/L phosphate buffer, pH 7.0 (1:1, w/v) to prepare virus inocula. […] Leaves of the local host Datura stramonium L. were dusted with silicon carbide (Sigma-Aldrich, St. Louis, MO, USA) before virus inoculation, and the inoculum was diluted with inoculation buffer to obtain 5–20 lesions per inoculated leaf. Experiments were performed when the experimental plants reached the 4–6 leaf stage.
The tested QAS (10 mg/mL) were dissolved in 4% DMSO and added to the virus inocula at a final concentration of 100 µg/mL. DMSO was added to the control virus inocula at the same concentration. The control and treated plants were then rubbed with the prepared inocula and the antiviral activity of the tested compounds was evaluated by the percentage inhibition of the number of local lesions on the leaves of the treated and control plants as described in [40]. The obtained data were analyzed in Excel (Microsoft Office) and significant differences were determined by t-test.

[10] = tested on: Escherichia coli DH5α cells; assay: AFM, bright-field and SYTO9/PI fluorescence microscopy of treated cells; format: cell-based; conditions: E. coli DH5α
Description: Optical and atomic force microscopy of the immobilized untreated and treated cells was performed to visualize the effect of Py-C12 on the bacterial membrane. For these experiments we used Escherichia coli DH5α cells because these cells allowed solid immobilization with persevered cell viability.
After making sure that the cells were properly immobilized and proliferating (a few new generations of cells were observed via optical microscopy), we started the treatment. To accelerate the process of time-dependent membrane damage, the cells were treated with the 4xMIC of Py-C12 for three hours after which the sample was rinsed with the fresh growth medium.
To estimate the percentage of cells whose membrane had been permeabilized by the treatment, the same group of cells was stained simultaneously with two fluorescent nucleic dyes, SYTO9 and propidium iodide (PI). […] When applied together, PI tends to displace SYTO9 from nucleic acid and the cells fluorescence in red. […]
AFM measurements of immobilized cells, both untreated and treated, were performed using the Nano-wizard IV system (JPK/Bruker, Berlin, Germany) operating in quantitative imaging (QI) mode with SNL-B probes (Bruker, Billerica, MA, USA). The AFM system was integrated with an IX73 inverted fluorescence optical microscope (Olympus, Tokyo, Japan). […]

[11] = compound 100 µg/mL inoculated simultaneously with TMV

Structure (SMILES)	MIC [2]	Cytotoxicity in words (RPE1 cells)	Cytotoxicity in words (HaCaT cells)	Number of local lesions (LLN ± SD) [9, 11]	MIC ([1]; MRSA, 18 h) [µg/mL]	MIC ([3]; ATCC29212, 18 h)	MIC [4]	MIC ([5]; ATCC14579, 18 h) [µg/mL]	MIC ([6]; ATCC25923, 18 h) [µg/mL]	MIC ([7]; ATCC7644, 18 h)	MIC ([8]; ATCC27853, 18 h)	other results
ON=Cc1ccncc1 [Py-4-ox, pyridine-4-aldoxime, reference compound]	5000 µg/mL and 40900 µM	moderately toxic	moderately toxic									MIC ([1]; 18 h, S. aureus clinical/MRSA, read-out: MIC): > 5000 µg/mL; MIC ([3]; 18 h, E. faecalis ATCC29212, read-out: MIC): 5000 µg/mL and 40900 µM; MIC ([4]; E. coli ATCC25922, read-out: MIC): > 5000 µg/mL and > 40900 µM; MIC ([5]; 18 h, B. cereus ATCC14579, read-out: MIC): > 5000 µg/mL; MIC ([6]; S. aureus ATCC25923, 18 h, 37 °C, read-out: MIC): > 5000 µg/mL; MIC ([7]; 18 h, L. monocytogenes ATCC7644, read-out: MIC): > 5000 µg/mL and > 40900 µM; MIC ([8]; 18 h, P. aeruginosa ATCC27853, read-out: MIC): > 5000 µg/mL and > 40900 µM
CCCCCCCCCCCC[n+]1ccc(C=NO)cc1 [Py-C12]	630 µg/mL and 1700 µM			3.0±1.1	310	630 µg/mL and 1700 µM	630 µg/mL and 1700 µM	1250	80	630 µg/mL and 1700 µM	2500 µg/mL and 6730 µM	MIC against E. coli DH5α in words (Escherichia coli DH5α): equivalent to that of E. coli ATTC 25922; Percentage of inhibition of local lesions ([9]; compound 100 µg/mL inoculated simultaneously with TMV, vs control plants): 78.1%; effect on number of bacterial cells (bright-field) ([10]; 4xMIC, 3 h): bacteriostatic effect; percentage of permeabilized cells ([10]; 4 × MIC, 3 h treatment, SYTO9/PI staining, 344 cells): 87%
CCCCCCCCCCCCCC[n+]1ccc(C=NO)cc1 [Py-C14]	2500 µg/mL and 6260 µM	moderately toxic	moderately toxic	1.0±0.4	160	310 µg/mL and 780 µM	630 µg/mL and 1580 µM	1250	80	310 µg/mL and 780 µM	2500 µg/mL and 6260 µM	fold higher LLN than the control BAB ([9]; 100 µg/mL): 5 fold
CCCCCCCCCCCCCCCC[n+]1ccc(C=NO)cc1 [Py-C16]	5000 µg/mL and 11700 µM	moderately toxic	moderately toxic		160	2500 µg/mL and 5850 µM	160 µg/mL and 370 µM	160	40	1250 µg/mL and 2920 µM	2500 µg/mL and 5850 µM	MIC ([1]; MRSA): 160 µg/mL; fold higher MIC than CPC ([6]; S. aureus ATCC25923): 28 fold; fold higher MIC than cefotaxime ([6]; S. aureus ATCC25923): 10 fold
